From patent US12643887B2, “Heterocyclic derivatives with cardiomyocyte proliferation activity for treatment of heart diseases” (Tongji University, priority 2019, dated 2026)
Like-named read-outs stand apart in the source and are kept apart here.

Legend:
[1] = target: T1, human HIPK2 (Homo sapiens, UniProt Q9H2X6); test: HIPK2 enzyme assay (ADP-Glo); assay type: biochemical
T1 construct: Recombinant human HIPK2 (1-640); GST (N); purchased SignalChem H04-11BG; host or cells: Sf9 insect cells
Procedure, shortened: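 GST-tagged HIPK2 (1-640) from Sf9, 1 nM, preincubated 30 min at 25° C with inhibitor in 40 mM Tris pH 7.5, 20 mM MgCl2. Reaction ran 90 min at 25° C with GST-MBP substrate at 0.05 mg/ml and 5 μM ATP. ADP-Glo luminescence; IC50 by four-parameter logistic fit.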

[2] = target: T2, human GSK3 beta (Homo sapiens, UniProt P49841); test: GSK3 beta enzyme assay (ADP-Glo); assay type: biochemical; details: ATP 25 μM, read-out: GSK3b IC50
T2 construct: Recombinant full-length human GSK3 beta (expressed in Sf9 insect cells with an N-terminal His tag); His (N); purchased SignalChem G09-10H; host or cells: Sf9 insect cells
T2 sequence (P49841 whole entry): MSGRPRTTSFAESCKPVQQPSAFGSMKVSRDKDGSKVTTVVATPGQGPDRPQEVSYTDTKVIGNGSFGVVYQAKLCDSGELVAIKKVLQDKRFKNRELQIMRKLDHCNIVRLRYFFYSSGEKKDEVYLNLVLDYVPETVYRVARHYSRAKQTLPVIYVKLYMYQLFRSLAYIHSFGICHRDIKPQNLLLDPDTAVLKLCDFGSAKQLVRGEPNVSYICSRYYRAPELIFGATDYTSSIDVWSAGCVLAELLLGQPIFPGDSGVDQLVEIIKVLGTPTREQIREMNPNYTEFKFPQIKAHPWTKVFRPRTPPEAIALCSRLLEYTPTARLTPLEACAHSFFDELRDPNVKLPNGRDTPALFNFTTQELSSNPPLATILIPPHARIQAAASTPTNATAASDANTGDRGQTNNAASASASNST
Procedure, shortened: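 Full-length His-tagged human GSK3β from Sf9 cells (4 nM) preincubated 30 min at 25 °C with inhibitor in Tris pH 7.5/MgCl2/BSA/DTT, then reacted 60 min at 25 °C with 13 μM substrate peptide and 25 μM ATP. ADP measured by ADP-Glo luminescence; IC50 from four-parameter logistic fit of % inhibition.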

[3] = ADP-Glo, ATP 5 μM, read-out: HIPK2 IC50

T1 sequence (Q9H2X6 1-640): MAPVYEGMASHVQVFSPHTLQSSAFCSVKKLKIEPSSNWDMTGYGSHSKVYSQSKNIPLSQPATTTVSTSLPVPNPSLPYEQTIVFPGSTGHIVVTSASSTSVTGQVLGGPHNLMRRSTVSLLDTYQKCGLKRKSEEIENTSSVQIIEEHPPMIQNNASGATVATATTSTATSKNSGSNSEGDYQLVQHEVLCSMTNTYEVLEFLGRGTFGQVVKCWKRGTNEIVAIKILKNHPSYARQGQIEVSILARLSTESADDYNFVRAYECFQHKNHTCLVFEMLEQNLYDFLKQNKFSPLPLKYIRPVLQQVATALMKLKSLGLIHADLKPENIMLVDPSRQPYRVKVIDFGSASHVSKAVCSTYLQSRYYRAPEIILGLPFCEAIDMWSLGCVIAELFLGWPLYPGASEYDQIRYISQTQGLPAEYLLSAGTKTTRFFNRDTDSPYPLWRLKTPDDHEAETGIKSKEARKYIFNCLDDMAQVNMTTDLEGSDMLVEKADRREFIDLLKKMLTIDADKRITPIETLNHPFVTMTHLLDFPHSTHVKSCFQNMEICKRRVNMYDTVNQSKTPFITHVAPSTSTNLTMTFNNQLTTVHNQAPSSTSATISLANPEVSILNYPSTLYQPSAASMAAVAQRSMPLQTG

IC50 [1, 3] | IC50 [2] | Compound | IC50 [1]
 |  | CC(=O)N(C1=N/C(=C\c2ccc3c(c2)OCO3)C(=O)N1)c1ccccc1 [Example 5, (Z)—N-(4-(benzo[d][1,3]dioxol-5-ylmethylene)-5-oxo-4,5-dihydro-1H-imidazol-2-yl)-N-phenylacetamide] | 1 to 10 µM
> 10 µM | 1 to 10 µM | CN(C1=N/C(=C\c2ccc3ncccc3c2)C(=O)N1)c1ccc2ncsc2c1 [Example 85, (Z)-2-(benzo[d]thiazol-6-yl(methyl)amino)-5-(quinolin-6-ylmethylene)-3,5-dihydro-4H-imidazol-4-one] | 
1 to 10 µM | 1 to 10 µM | CN(C1=N/C(=C\c2ccc3ncsc3c2)C(=O)N1)c1ccc2c(c1)ncn2C [Example 86, (Z)-5-(benzo[d]thiazol-6-ylmethylene)-2-(methyl(1-methyl-1H-benzo[d]imidazol-5-yl)amino)-3,5-dihydro-4H-imidazol-4-one] | 
> 10 µM | > 10 µM | CN(C1=N/C(=C\c2ccc3[nH]ccc3c2)C(=O)N1)c1ccc2ncsc2c1 [Example 87, (Z)-5-((1H-indol-5-yl)methylene)-2-(benzo[d]thiazol-6-yl(methyl)amino)-3,5-dihydro-4H-imidazol-4-one] | 
> 10 µM | > 10 µM | CN1C(=O)/C(=C/c2ccc3ncsc3c2)N=C1Nc1ccc2ncsc2c1 [Example 88, (Z)-2-(benzo[d]thiazol-6-ylamino)-5-(benzo[d]thiazol-6-ylmethylene)-3-methyl-3,5-dihydro-4H-imidazol-4-one] | 
0.1 to 1 µM | 1 to 10 µM | COCCN(C1=N/C(=C\c2ccc3ncsc3c2)C(=O)N1)c1ccc2ncsc2c1 [Example 89, (Z)-2-(benzo[d]thiazol-6-yl(2-methoxyethyl)amino)-5-(benzo[d]thiazol-6-ylmethylene)-3,5-dihydro-4H-imidazol-4-one] | 
< 0.1 µM | > 10 µM | Cc1nc2ccc(NC3=N/C(=C\c4ccc5ncsc5c4)C(=O)N3)cc2s1 [Example 90, (Z)-5-(benzo[d]thiazol-6-ylmethylene)-2-((2-methylbenzo[d]thiazol-6-yl)amino)-3,5-dihydro-4H-imidazol-4-one] | 
0.1 to 1 µM | 0.1 to 1 µM | O=C1NC(Nc2ccc3ncsc3c2)=N/C1=C\c1cncs1 [Example 92, (Z)-2-(benzo[d]thiazol-6-ylamino)-5-(thiazol-5-ylmethylene)-3,5-dihydro-4H-imidazol-4-one] | 
0.1 to 1 µM | 0.1 to 1 µM | Cn1cnc2ccc(NC3=N/C(=C\c4ccc5ncsc5c4)C(=O)N3)cc21 [Example 93, (Z)-5-(benzo[d]thiazol-6-ylmethylene)-2-((1-methyl-1H-benzo[d]imidazol-6-yl)amino)-3,5-dihydro-4H-imidazol-4-one] | 
> 10 µM | > 10 µM | O=C1NC(Nc2ccc3ncsc3c2)=N/C1=C\c1ccc2nccnc2c1 [Example 94, (Z)-2-(benzo[d]thiazol-6-ylamino)-5-(quinoxalin-6-ylmethylene)-3,5-dihydro-4H-imidazol-4-one] | 
> 10 µM | > 10 µM | O=C1NC(Nc2ccc3ncsc3c2)=N/C1=C\c1ccc2cn[nH]c2c1 [Example 95, (Z)-5-((1H-indazol-6-yl)methylene)-2-(benzo[d]thiazol-6-ylamino)-3,5-dihydro-4H-imidazol-4-one] | 
> 10 µM | 1 to 10 µM | O=C1NC(=S)N/C1=C\c1ccc2sccc2c1 [Example 96, (Z)-5-(benzo[b]thiophen-5-ylmethylene)-2-thioxoimidazolidin-4-one] | 
< 0.1 µM | 1 to 10 µM | O=C1NC(Nc2ccc3nc[nH]c3c2)=N/C1=C\c1ccc2ncsc2c1 [Example 97, (Z)-2-((1H-benzo[d]imidazol-6-yl)amino)-5-(benzo[d]thiazol-6-ylmethylene)-3,5-dihydro-4H-imidazol-4-one] | 
0.1 to 1 µM | > 10 µM | O=C1NC(N(Cc2ccccc2)c2ccc3ncsc3c2)=N/C1=C\c1ccc2ncsc2c1 [Example 99, (Z)-2-(benzo[d]thiazol-6-yl(benzyl)amino)-5-(benzo[d]thiazol-6-ylmethylene)-3,5-dihydro-4H-imidazol-4-one] | 
0.1 to 1 µM | 0.1 to 1 µM | CC(C)Nc1nc2ccc(NC3=N/C(=C\c4ccc5ncsc5c4)C(=O)N3)cc2s1 [Example 100, (Z)-5-(benzo[d]thiazol-6-ylmethylene)-2-((2-(isopropylamino)benzo[d]thiazol-6-yl)amino)-3,5-dihydro-4H-imidazol-4-one] | 
> 10 µM | > 10 µM | O=C1NC(Nc2ccc3sccc3c2)=N/C1=C\c1ccc2ncsc2c1 [Example 101, (Z)-2-(benzo[b]thiophen-5-ylamino)-5-(benzo[d]thiazol-6-ylmethylene)-3,5-dihydro-4H-imidazol-4-one] | 

Compound | IC50 [1, 3] | IC50 [2] | IC50 [1]
CCN(C1=N/C(=C\c2ccc3c(c2)OCO3)C(=O)N1)c1ccccc1 [Example 4, (Z)-5-(benzo[d][1,3]dioxol-5-ylmethylene)-2-(ethyl(phenyl)amino)-3,5-dihydro-4H-imidazol-4-one] | > 10 µM |  | 
CC(=O)N(C1=N/C(=C\c2ccc3ncsc3c2)C(=O)N1)c1ccc2ncsc2c1 [Example 91, (Z)—N-(benzo[d]thiazol-6-yl)-N-(4-(benzo[d]thiazol-6-ylmethylene)-5-oxo-4,5-dihydro-1H-imidazol-2-yl)acetamide] | < 0.1 µM | > 10 µM | 
Nc1ccc(NC2=N/C(=C\c3ccc4ncsc4c3)C(=O)N2)cc1 [Example 98, (Z)-2-((4-aminophenyl)amino)-5-(benzo[d]thiazol-6-ylmethylene)-3,5-dihydro-4H-imidazol-4-one] | 0.1 to 1 µM | 0.1 to 1 µM | 
